Laboratory results reported in patent US20250295795A1, “PEPTIDE” (priority 2021, published 2025).
“Also recorded” adds a separate entry of the source. No end group written: not given here.

Assays:
[1] = tested on: HeLa cells; assay: Live cell confocal microscopy: cellular uptake and intracellular distribution of Tat conjugates in HeLa cells; assay type: cell-based, human; settings: HeLa cells, 60 min, post-wash
Protocol: The cellular uptake and intracellular distribution of Tat-trimers and monomeric controls was investigated by performing live cell confocal microscopy of HeLa (human, cervical cancer) and CHO (Chinese hamster, […]). Following washing, images were acquired using a Zeiss 780 confocal microscope fitted with an incubation chamber (FIG. 2). In accordance with observations that free Tat in the cytosol readily enters the nucleus and strongly binds to nucleoli,^29 homogenous staining of cytoplasm and nucleoli were considered as indicative of cells having accumulated free conjugate, not confined to endosomes, for quantification purposes. […] The uptake and intracellular distribution of tri-Tat A is similar in live Hela and CHO cells (FIG. 2b,d,e).
Following washing, images were acquired using a Zeiss 780 confocal microscope fitted with an incubation chamber. In accordance with observations that free Tat in the cytosol readily enters the nucleus and strongly binds to nucleoli,^29 homogenous staining of cytoplasm and nucleoli were considered as indicative of cells having accumulated free conjugate, not confined to endosomes, for quantification purposes. The results were compared to tri-Tat A (8) and tri-cTat B (17).
(§1) HeLa and CHO cells were cultured in DMEM supplemented with 10% FBS and penicillin/streptomycin. For post-wash experiments, Tat conjugate was added to the cells in serum free medium, cells incubated at 37° C. in an atmosphere of 5% CO2, culture medium removed at the desired time point, cells washed and transferred to the microscope for imaging. For time course or pre-wash experiments, cells were transferred to the microscope (incubation chamber at 37° C., 5% CO2) and Tat conjugate added directly to cell medium and cells imaged at desired time points. Co-delivery experiments were conducted by adding peptide trimer immediately followed by cargo into serum free medium. Samples were visualised using a Zeiss LSM 780 inverted confocal microscope fitted with a XLmultiS1 incubation chamber and Plan-Apochromat 63×/1.40 Oil DIC M27 objective. Images were analysed using ImageJ software. Digital adjustments and image processing are consistent throughout the manuscript, unless otherwise stated in the figure legend. Statistical analysis was carried out using GraphPad Prism 7 software and all data used for statistical analysis consists of measurements from distinct cells. Where applicable a parametric, unpaired, two-tailed t-test was used for statistical testing.

[2] = tested on: CHO cells; assay: Live cell confocal microscopy: cellular uptake and intracellular distribution of Tat conjugates in CHO cells; assay type: cell-based, Chinese hamster; settings: 60 min, post-wash
Protocol: The cellular uptake and intracellular distribution of Tat-trimers and monomeric controls was investigated by performing live cell confocal microscopy of HeLa (human, cervical cancer) and CHO (Chinese hamster, epithelial) cells incubated with Tat conjugates (1 μM) in serum-free DMEM (60 min). Following washing, images were acquired using a Zeiss 780 confocal microscope fitted with an incubation chamber (FIG. 2). In accordance with observations that free Tat in the cytosol readily enters the nucleus and strongly binds to nucleoli,^29 homogenous staining of cytoplasm and nucleoli were considered as indicative of cells having accumulated free conjugate, not confined to endosomes, for quantification purposes. […] The uptake and intracellular distribution of tri-Tat A is similar in live Hela and CHO cells (FIG. 2b,d,e).
as §1

[3] = tested on: HeLa cells; assay: Time course of uptake in Hela cells (continuous live cell confocal microscopy, ROI profile analysis); assay type: cell-based, human; settings: 1 μM
Protocol: To better understand the mechanism by which tri-Tat A and tri-cTat B enter the cytosol and the nucleus, we investigated the uptake kinetics of the conjugates during the first 15 min after their addition to Hela cells using confocal live cell microscopy. Tri-Tat A (FIG. 3a) or tri-cTat B (FIG. 3b) (1 μM) were added to the cells and images acquired from 1 min to 15 min at 60 sec intervals. The two trimers show distinct uptake patters into Hela cells; to better understand the difference in uptake kinetics, we drew cross sectional profile plots through representative cells treated with tri-Tat A (FIG. 3c) and tri-cTat B (FIG. 3d). […] To investigate whether findings in individual cells also apply to larger populations, we extended the plot profile analysis by designating regions of interest (ROI) corresponding to plasma membrane, cytosol (excluding endosomes), nucleus, and nucleoli along the cross section, using information from brightfield images.^30 Average fluorescence intensities for each ROI, at each time point, in six cells per treatment group were calculated and plotted in FIGS. 3e-3h.
as §1

[4] = tested on: HeLa cells; assay: Membrane integrity / porosity: propidium iodide uptake after trimer treatment; assay type: cell-based, human; settings: 1 μM trimer; 40 μM PI added 20 min after trimer
Protocol: To assess membrane integrity, 40 μM propidium iodide (PI; a cell impermeable dye), was added to Hela cells 20 min after the addition of the peptide trimer.

[5] = MTT assay of metabolic activity (cell viability); assay type: cell-based; settings: human, HeLa cells, 1 μM for 60 min
Protocol: Toxicity is a concern with potent intracellular delivery agents. We used an MTT assay to measure the metabolic activity of Hela cells treated with 1 μM tri-Tat A or tri-cTat B for 60 min (FIG. 4d). […] Tri-Tat A is slightly more toxic, which is consistent with the observation that the trimer forms membrane pores (cells 84.4% viable, 4 h post-treatment; 80.2% viable, 3 days post-treatment). The favourable uptake mechanism and low toxicity of tri-cTat B lead us to investigate this agent for its potential to transport biomacromolecular cargos into cells.

[6] = tested on: HeLa cells; assay: Co-delivery of antibodies, antibody fragments and RFP into live Hela cells; assay type: cell-based, human; settings: 1 μM peptide
Text: Access to the cytosol by mechanisms that are independent of transmembrane pore formation constitutes a preferred method of co-delivery due to reduced toxicity to the cell. […] Successful delivery of Fab is indicated by homogenous distribution of AF647 signal in the cytosol and nucleus and is only observed in cells which have been transduced with tri-cTat B (FIG. 13). Time course of Fab uptake by tri-cTat B (FIG. 5c) follows a similar pattern as tri-cTat B alone (FIG. 3b, d). Tri-cTat B and Fab form large vesicle-like bodies that appear to release their contents into the cytosol of the cell; unambiguous cytosolic staining by Fab is observed from 23 min. Interaction between peptide trimer and biomacromolecule, mediated by charge-charge interactions is essential for the accumulation of both in endosomes and subsequent release and delivery of cargo into cells. Delivery of relatively β-sheet rich, neutrally charged recombinant RFP was unsuccessful (FIG. 16) due to a lack of association between tri-cTat B and cargo (FIG. 17). On the other hand, interaction diminishes the efficacy of the peptide trimer due to charge masking, emphasising the need to maintain an appropriate peptide to cargo ratio for a given macromolecule. Experiments to explore the efficacy of tri-cTat B in the presence of serum supplemented medium underline this principle; while tri-cTat B continues to function in the presence of serum, the number of transduced cells diminishes (42% (serum) vs. 61% (serum free)), but can be restored by increasing tri-cTat B concentration to 2 μM (79% (serum); FIG. 15). […] This is likely due to the larger size of antibodies and also to the observation that antibodies have a greater tendency to aggregate in the presence of tri-cTat B compared to Fab fragments. […] Finally, we investigated whether it is possible to deliver functional antibodies and antibody fragments into the cytosol and nuclei of cells. β-actin was chosen as a proof-of-principle protein because of its abundance in the cell and formation of distinctive subcellular filaments. To clearly identify actin filaments, Hela cells were transfected with red fluorescent protein fused to actin (actin-RFP) before being incubated with β-actin antibody (mouse IgG2b) or β-actin Fab fragment (mouse) conjugated to AF647 plus tri-cTat B for 30 min. After washing, cells were left for 60 min to allow IgG/Fab to bind to actin filaments. […] To enable objective quantification of co-localization between β-actin filaments and IgG/Fab fragment (white arrows), a co-localization threshold algorithm was used in selected regions of interest (ROI). Pearson's and Manders' coefficients were obtained under Costes' automatic threshold^32 and the co-localized pixels are shown as a mask of yellow pixels of constant intensity (co-localization panels). The significance of the co-localization parameters (Pearson's and Manders' coefficients) was evaluated using the confined displacement algorithm (CDA).
as §1, with “Statistical analysis was carried out using GraphPad Prism 7 software and all data used for statistical analysis consists of measurements from distinct cells. Where applicable a parametric, unpaired, two-tailed t-test was used for statistical testing.” left out

Row | Compound | cellular uptake and intracellular distribution ([1]; 1 μM, serum-free DMEM) | cellular uptake and intracellular distribution ([2]; 1 μM, serum-free DMEM) | time after which cytosolic signal increases rapidly [3] | cytosolic signal relative to tri-cTat B (factor) ([3]; at 15 min, p<0.05) | association with plasma membrane (profile plots) ([3]; representative cells) | association with the plasma membrane relative to tri-cTat B ([3]; t=1 to 15 min, p<0.05) | propidium iodide (PI) uptake / pore formation [4] | viability at 4 h, 1 µM ([5]; 4 h post-treatment) | viability at 72 h, 1 µM ([5]; 3 days post-treatment) | cellular uptake and intracellular distribution ([1]; 10 μM) | cellular uptake and intracellular distribution ([2]; 10 μM) | cellular uptake of Fab in the presence of the peptide ([6]; Fab-AF647, 30 min) | cellular uptake of IgG in the presence of the peptide ([6]; IgG-AF647, 45 min)
1 | N=C(N)NCCC[C@H](NC(=O)[C@H](CCCNC(=N)N)NC(=O)[C@H](CCCNC(=N)N)NC(=O)[C@H](CCC(N)=O)NC(=O)[C@H](CCCNC(=N)N)NC(=O)[C@H](CCCNC(=N)N)NC(=O)[C@H](CCCCN)NC(=O)[C@H](CCCCN)NC(=O)[C@H](CCCNC(=N)N)NC(=O)CCCc1cn(CC(Cn2cc(CCCC(=O)N[C@@H](CCCNC(=N)N)C(=O)N[C@@H](CCCCN)C(=O)N[C@@H](CCCCN)C(=O)N[C@@H](CCCNC(=N)N)C(=O)N[C@@H](CCCNC(=N)N)C(=O)N[C@@H](CCC(N)=O)C(=O)N[C@@H](CCCNC(=N)N)C(=O)N[C@@H](CCCNC(=N)N)C(=O)N[C@@H](CCCNC(=N)N)C(N)=O)nn2)(Cn2cc(CCCC(=O)N[C@@H](CCCNC(=N)N)C(=O)N[C@@H](CCCCN)C(=O)N[C@@H](CCCCN)C(=O)N[C@@H](CCCNC(=N)N)C(=O)N[C@@H](CCCNC(=N)N)C(=O)N[C@@H](CCC(N)=O)C(=O)N[C@@H](CCCNC(=N)N)C(=O)N[C@@H](CCCNC(=N)N)C(=O)N[C@@H](CCCNC(=N)N)C(N)=O)nn2)Cn2cc(CNC(=O)c3ccc4c(c3)C(=O)OC43c4ccc(N)c(S(=O)(=O)O)c4Oc4c3ccc(N)c4S(=O)(=O)O)nn2)nn1)C(N)=O (some centres unmarked) [tri-Tat A] | homogenous cytosolic uptake and nucleolar staining; also recorded: taken up into the cytosol and nucleoli | homogenous cytosolic uptake and nucleolar staining; also recorded: taken up into the cytosol and nucleoli | ~12 min | 2 | initial strong association | approximately three | significantly higher; also recorded: co-stain with PI | 84.4% | 80.2% |  |  |  | 
2 | mono-Tat: monomeric control: linear Tat (49-57) peptide labelled with AF488 (RKKRRQRRR; also: AF488 label, place not given here; UniProt P04608 49-57, looked up, fragment) | not taken up | not taken up |  |  |  |  |  |  |  | no cytosolic uptake or nucleolar staining; also recorded: taken up only into endosomes | no cytosolic uptake or nucleolar staining; also recorded: taken up only into endosomes | no cellular uptake | no cellular uptake
3 | tri-Tat B: AF488-labelled trimer of linear Tat (49-57) peptide on alkyne functionalized scaffold B (RKKRRQRRR; also: trimer on alkyne functionalized scaffold B, AF488 label, place not given here; UniProt P04608 49-57, looked up, fragment) | no evidence of cytosolic uptake or nucleolar staining; also recorded: only taken up into endosomes | no evidence of cytosolic uptake or nucleolar staining; also recorded: only taken up into endosomes |  |  |  |  |  |  |  |  |  |  | 
